Molecules are shown by their SMILES. Values joined by “and” are separate entries in the source; they are usually repeats but may differ in a detail not shown here. Equal entries are not always repeated.

The data set deals with female mice (C57BLKS/J-m +/+ Lepr<db> (db/db)). The data set is described as follows: Oral glucose tolerance test (blood glucose and blood lactic acid levels). It counts as in vivo. The note with it: subcutaneous, AUC up to 2 hours vs solvent group; for Blood glucose reduction rate (%): 30 min before oral glucose 3 g/kg; for Blood lactic acid level increase rate (%): oral glucose tolerance test. The procedure: Measurement of blood glucose reduction rate and blood lactic acid levels by the aforementioned oral glucose tolerance test may be carried out by a publicly known method, and preferred methods are described below. Specifically, 11- to 17-week-old female mice (C57BLKS/J-m +/+ Lepr (db/db)) are starved for 18-24 hours. A group of five or six mice is used for the test. Blood is sampled from the tail for measurement of the blood glucose levels and blood lactic acid levels before treatment as controls. After sampling, the biguanide derivative is dissolved in phosphate-buffered physiological saline at a suitable concentration and subcutaneously administered at a dose of 5 ml/kg. As controls are prepared mice administered only the solvent. Glucose is then administered orally at a dose of 3 g/6 ml/kg at 30 minutes after administration of the compound or solvent as an oral glucose tolerance test. Blood is sampled from the tail for measurement of the blood glucose levels and the blood lactic acid levels 30 minutes, 1 hour and 2 hours after glucose administration. The blood glucose levels are measured using a New Blood Sugar Test (Roche Diagnostics) or a Glucose CII-Test Wako (Wako Pure Chemical Industries, Ltd.). The blood lactic acid levels are measured using an “Asuka Sigma” (Sigma Diagnostics).
The blood glucose reduction rate and the blood lactic acid level increase rate are calculated according to the following formulas. Blood glucose reduction rate (%)=[(AUC for blood glucose increase level of solvent-administered group−AUC for blood glucose increase level of compound-administered group)/AUC for blood glucose increase level of solvent-administered group]×100
The blood lactic acid level increase rate is calculated according to the following formula. Blood lactic acid level increase rate (%)=[(AUC for blood lactic acid level of compound-administered group−AUC for blood lactic acid level of solvent-administered group)/AUC for blood lactic acid level of solvent-administered group]×100
Eleven- to seventeen-week-old female mice (C57BLKS/J-m +/+ Lepr (db/db)) were starved for 18-24 hours, and a group of six mice was used for the test. Blood was sampled from the tail for measurement of the blood glucose levels and blood lactic acid levels before treatment. […] As a control, the solvent alone was subcutaneously administered to mice similarly.
Glucose was then administered orally at a dose of 3 g/6 ml/kg at 30 minutes after administration of the compound or solvent as an oral glucose tolerance test. Blood was sampled from the tail for measurement of the blood glucose levels and blood lactic acid levels 30 minutes, 1 hour and 2 hours after glucose administration. The blood glucose levels were measured using a New Blood Sugar Test (Roche Diagnostics) or a Glucose CII-Test Wako (Wako Pure Chemical Industries, Ltd.). The blood lactic acid levels were measured using an “Asuka Sigma” (Sigma Diagnostics).

Consider `[H]/N=C(/N)N/C(=N/[H])NCCc1ccccc1` [Phenformin], for which, for the setting “dosage 37.5 mg/kg”, the “Blood glucose reduction rate (%)” value is 39.5% and 72.7%; the “Blood lactic acid level increase rate (%)” value was 46.4% and 83.1%. In addition, where the note is “dosage 75 mg/kg”, the “Blood glucose reduction rate (%)” value was 64.5% and 78.0% and 60.8% and 61.4% and 72.8% and 69.6%; the “Blood lactic acid level increase rate (%)” value was 93.6% and 151.6% and 94.7% and 120.8% and 141.1% and 114.8%.
With `N=C(N)NC(=N)NCc1ccoc1` [1-[(Furan-3-yl)methyl]biguanide, 1-[(furan-3-yl)methyl]biguanide], the “Blood glucose reduction rate (%)” value (dosage 50 mg/kg) came out at 40.3%. For the same compound, under “dosage 75 mg/kg”, the “Blood glucose reduction rate (%)” value is on record as 65.5% and the “Blood lactic acid level increase rate (%)” value was determined as 9.7%.
In the case of `CN(C)C(=N)N=C(N)N` [Metformin], where the note is “dosage 200 mg/kg”, the “Blood glucose reduction rate (%)” value was 56.0% and 41.8%.

Values taken from patent publication US7396858B2, “Biguanide derivative and therapeutic agent for diabetes containing the same” (Chugai Seiyaku Kabushiki Kaisha, priority 2002, dated 2008).
